# Reference: US20230414599A1, “NICOTINAMIDE, NICOTINAMIDE PRECURSORS AND NICOTINAMIDE METABOLITES AND COMPOSITIONS THEREOF FOR REDUCING THE TIME TO RESOLUTION OF SYMPTOMS IN PATIENTS WITH COVID-19 AND OTHER VIRAL INFECTIONS” (CONARIS RESEARCH INSTITUTE AG, priority 2020, published 2023)
# Where two headings read alike, the source gives them in different places.
# Tested on: COVID-19
# Conditions: for Cough complaint scale, mean / Cough complaint scale, median / Change in cough complaint scale, mean / Change in cough complaint scale, median: n = 36; for Ability to perform normal activities, complaint scale 0-6, mean change / Ability to perform normal activities, complaint scale 0-6, median change: week 4 - baseline
# [1] = baseline, BMI ≥30.0 or type 2 diabetes, n = 27
# [2] = baseline, current or former smokers, n = 75
# [3] = baseline, patients with cough and fever, n = 15
# [4] = baseline, patients with cough, n = 106
# [5] = baseline, patients with fever, n = 21
# [6] = baseline, ≥1 risk factor for severe COVID-19, n = 117
# [7] = patients with cough and taste loss, baseline
# [8] = patients with cough and taste loss, week 2
# [9] = patients with cough and taste loss, week 2 - baseline
# [10] = patients with cough and taste loss, week 4
# [11] = patients with cough and taste loss, week 6
# [12] = patients with cough and taste loss, week 6 - baseline
# [13] = patients with cough, fever and taste loss, n = 6, week 4 compared to baseline
# [14] = patients with cough, fever and taste loss, n = 6, week 6 compared to baseline
# [15] = patients with fever and taste loss, n = 8, week 4 compared to baseline
# [16] = patients with fever and taste loss, n = 8, week 6 compared to baseline
# [17] = week 2 - baseline, BMI ≥30.0 or type 2 diabetes, n = 27, 500 mg IR + 500 mg CICR-NAM daily
# [18] = week 2, BMI ≥30.0 or type 2 diabetes, n = 27, 500 mg IR + 500 mg CICR-NAM daily
# [19] = week 2, current or former smokers, n = 75, 500 mg IR + 500 mg CICR-NAM daily
# [20] = week 2, patients with cough and fever, n = 15, 500 mg IR + 500 mg CICR-NAM daily
# [21] = week 2, patients with cough, n = 106, 500 mg IR + 500 mg CICR-NAM daily
# [22] = week 2, patients with fever, n = 21, 500 mg IR + 500 mg CICR-NAM daily
# [23] = week 2, ≥1 risk factor for severe COVID-19, n = 117, 500 mg IR + 500 mg CICR-NAM daily
# [24] = BMI ≥30.0 or type 2 diabetes, n = 27, 500 mg IR + 500 mg CICR-NAM daily
# [25] = patients with cough and fever, n = 15, 500 mg IR + 500 mg CICR-NAM daily
# [26] = patients with cough, n = 106, 500 mg IR + 500 mg CICR-NAM daily
# [27] = patients with fever, n = 21, 500 mg IR + 500 mg CICR-NAM daily
# [28] = week 4, BMI ≥30.0 or type 2 diabetes, n = 27, 500 mg IR + 500 mg CICR-NAM daily
# [29] = week 4, current or former smokers, n = 75, 500 mg IR + 500 mg CICR-NAM daily
smiles,measurement,setting,value
"NC(=O)c1cccnc1 [Nicotinamide, nicotinamide]","Ability to perform normal activities, complaint scale 0-6, mean",[1],3.037
same,"Ability to perform normal activities, complaint scale 0-6, median",[1],3.000
same,"Cough complaint scale 0-6, mean",[1],3.000
same,"Cough complaint scale 0-6, median",[1],3.000
same,"Ability to perform normal activities, complaint scale 0-6, mean",[2],3.373
same,"Ability to perform normal activities, complaint scale 0-6, median",[2],4.000
same,"Ability to perform normal activities, complaint scale 0-6, mean",[3],4.000
same,"Ability to perform normal activities, complaint scale 0-6, median",[3],4.0
same,"Ability to perform normal activities, complaint scale 0-6, mean",[4],2.915
same,"Ability to perform normal activities, complaint scale 0-6, median",[4],3.0
same,"Ability to perform normal activities, complaint scale 0-6, mean",[5],4.000
same,"Ability to perform normal activities, complaint scale 0-6, median",[5],4.0
same,"Ability to perform normal activities, complaint scale 0-6, mean",[6],3.188
same,"Ability to perform normal activities, complaint scale 0-6, median",[6],3.0
same,Cough complaint scale vs placebo (Table 7.1),patients with cough and taste loss,significant difference found in favour of placebo
same,"Cough complaint scale, mean",[7],2.194
same,"Cough complaint scale, median",[7],2.0
same,"Cough complaint scale, mean",[8],0.917
same,"Cough complaint scale, median",[8],0.0
same,"Change in cough complaint scale, mean",[9],−1.287
same,"Change in cough complaint scale, median",[9],−1.0
same,"Cough complaint scale, mean",[10],0.639
same,"Cough complaint scale, median",[10],0.0
same,"Cough complaint scale, mean",[11],0.417
same,"Cough complaint scale, median",[11],0.0
same,"Change in cough complaint scale, mean",[12],−1.778
same,"Change in cough complaint scale, median",[12],−2.0
same,"Change in fatigue: constant, number of patients",[13],1
same,"Change in fatigue: improved, %",[13],83.33%
same,"Change in fatigue: improved, number of patients",[13],5
same,"Change in fatigue: worse, %",[13],0.00%
same,"Change in fatigue: worse, number of patients",[13],0
same,"Change in fatigue: constant, number of patients",[14],2
same,"Change in fatigue: improved, %",[14],66.67%
same,"Change in fatigue: improved, number of patients",[14],4
same,"Change in fatigue: worse, %",[14],0.00%
same,"Change in fatigue: worse, number of patients",[14],0
same,"Change in fatigue: constant, number of patients",[15],1
same,"Change in fatigue: improved, %",[15],87.50%
same,"Change in fatigue: improved, number of patients",[15],7
same,"Change in fatigue: worse, %",[15],0.00%
same,"Change in fatigue: worse, number of patients",[15],0
same,"Change in fatigue: constant, number of patients",[16],2
same,"Change in fatigue: improved, %",[16],75.00%
same,"Change in fatigue: improved, number of patients",[16],6
same,"Change in fatigue: worse, %",[16],0.00%
same,"Change in fatigue: worse, number of patients",[16],0
same,"Effect on the ability to perform normal activities, fatigue and reduced physical performance","patients with ≥1 risk factor for severe COVID-19, futility analysis",biologically and statistically significant positive effect
same,"Cough complaint scale 0-6, mean change",[17],−1.815
same,"Cough complaint scale 0-6, median change",[17],−2.000
same,"Ability to perform normal activities, complaint scale 0-6, mean",[18],1.556
same,"Ability to perform normal activities, complaint scale 0-6, median",[18],1.000
same,"Cough complaint scale 0-6, mean",[18],1.185
same,"Cough complaint scale 0-6, median",[18],1.000
same,"Ability to perform normal activities, complaint scale 0-6, mean",[19],1.093
same,"Ability to perform normal activities, complaint scale 0-6, median",[19],0.000
same,"Presence of cough constant vs baseline, % of patients",[19],60.00%
same,"Presence of cough constant vs baseline, patients",[19],45
same,"Presence of cough improved vs baseline, % of patients",[19],36.00%
same,"Presence of cough improved vs baseline, patients",[19],27
same,"Presence of cough worse vs baseline, % of patients",[19],4.00%
same,"Presence of cough worse vs baseline, patients",[19],3
same,"Ability to perform normal activities, complaint scale 0-6, mean",[20],1.733
same,"Ability to perform normal activities, complaint scale 0-6, median",[20],2.0
same,"Ability to perform normal activities, complaint scale 0-6, mean",[21],1.226
same,"Ability to perform normal activities, complaint scale 0-6, median",[21],1.0
same,"Ability to perform normal activities, complaint scale 0-6, mean",[22],1.381
same,"Ability to perform normal activities, complaint scale 0-6, median",[22],1.0
same,"Ability to perform normal activities, complaint scale 0-6, mean",[23],1.299
same,"Ability to perform normal activities, complaint scale 0-6, median",[23],1.0
same,"Fatigue constant vs baseline, % of patients",[23],57.26%
same,"Fatigue constant vs baseline, patients",[23],67
same,"Fatigue improved vs baseline, % of patients",[23],40.17%
same,"Fatigue improved vs baseline, patients",[23],47
same,"Fatigue worse vs baseline, % of patients",[23],2.56%
same,"Fatigue worse vs baseline, patients",[23],3
same,"Ability to perform normal activities, complaint scale 0-6, mean change",[24],−1.667
same,"Ability to perform normal activities, complaint scale 0-6, median change",[24],−2.000
same,"Ability to perform normal activities, complaint scale 0-6, mean change",[25],−2.800
same,"Ability to perform normal activities, complaint scale 0-6, median change",[25],−3.0
same,"Ability to perform normal activities, complaint scale 0-6, mean change",[26],−2.179
same,"Ability to perform normal activities, complaint scale 0-6, median change",[26],−2.0
same,"Ability to perform normal activities, complaint scale 0-6, mean change",[27],−2.952
same,"Ability to perform normal activities, complaint scale 0-6, median change",[27],−3.0
same,"Ability to perform normal activities constant vs baseline, % of patients",[28],14.81%
same,"Ability to perform normal activities constant vs baseline, patients",[28],4
same,"Ability to perform normal activities improved vs baseline, % of patients",[28],74.07%
same,"Ability to perform normal activities improved vs baseline, patients",[28],20
same,"Ability to perform normal activities worse vs baseline, % of patients",[28],11.11%
same,"Ability to perform normal activities worse vs baseline, patients",[28],3
same,"Ability to perform normal activities, complaint scale 0-6, mean",[28],1.370
same,"Ability to perform normal activities, complaint scale 0-6, median",[28],1.000
same,"Cough complaint scale 0-6, mean",[28],0.815
same,"Cough complaint scale 0-6, median",[28],0.000
same,"Ability to perform normal activities constant vs baseline, % of patients",[29],9.33%
same,"Ability to perform normal activities constant vs baseline, patients",[29],7
same,"Ability to perform normal activities improved vs baseline, % of patients",[29],84.00%
same,"Ability to perform normal activities improved vs baseline, patients",[29],63
